In patent US20110245323A1, “RIG-Like Helicase Innate Immunity Inhibits VEGF-Induced Tissue Responses” (Yale University, priority 2006, published 2011):
“Also recorded” adds a separate entry of the source.

How the values were obtained:
Type in all cases: in vivo, mouse
[1] = system: CC10-rtTA-VEGF165 transgenic mice; experiment: VEGF-induced angiogenesis, anti-CD31 immunohistochemistry and vessel area density; details: for VEGF-induced angiogenesis (vascular density, appearance, sprouting): pretreatment starting 1 day before dox, vs vehicle
Protocol: (§1) The CC10-rtTA-VEGF165 transgenic mice used in this study were generated and used as described previously (Lee et al., 2004, Nature Medicine 10:1095-103), which reference is incorporated herein in its entirety. These animals were housed under barrier conditions in the animal facility at Yale University School of Medicine. In these experiments 6-8 week old transgenic (Tg+) animals and their transgene negative littermate controls (Tg−) were randomized to receive water with doxycycline (dox) (0.5 mg/ml) or normal water. Two weeks later they were sacrificed and the VEGF-induced phenotype was evaluated as described below (Lee et al., 2004, Nature Medicine 10:1095-103).
To define the effects of these agents on the tissue responses induced by VEGF, two experimental procedures were used. In the first, a pretreatment protocol was used. In these experiments the noted innate immunity agonist ([…] unless otherwise indicated) or its vehicle control (PBS) were administered intranasally and aspirated into the lungs of randomized Tg+ and Tg− mice starting one day before the Dox water treatment. The doses were administered to the mice every other day during the 2 week doxyxycline (dox) treatment interval.
To determine if the innate immunity agonists altered established VEGF-induced tissue responses, a “post treatment” protocol was used in selected experiments. In these experiments the innate immunity agonist was administered 2 days or 14 days after the doxycycline and VEGF-induced responses were evaluated 2 weeks later.
To define the effects of Poly(I:C) a number of protocols were employed. In most experiments, a pretreatment-2 week protocol was employed. In these experiments, WT and Tg+ mice were treated with Poly(I:C) (30 μg in 50 lambda unless otherwise indicated; Amersham Biosciences, N.J.) or vehicle control via nasal aspiration and transgene activation was accomplished via the administration of dox (0.5 mg/ml) in the animal's drinking water 24 hours later. The Poly(I:C) was administered every other day and the dox was administered continuously for up to 2 weeks.
In selected experiments a pretreatment protocol and shorter treatment interval was employed. In these experiments, WT and Tg+ mice were treated with Poly(I:C) (30 μg/mouse/dose in 50 μl) or vehicle control via nasal aspiration and transgene activation was accomplished with dox 24 hours later. The animals were then randomized to not receive or receive one additional dose of Poly(I:C) 24 hours later and dox was administered continuously during this 2 week interval.
Lastly, in selected experiments post-transgene activation protocols were employed. In these experiments dox was administered for 2 days or 2 weeks. The Poly(I:C) was then administered via intranasal aspiration every other day for 2 weeks as disclosed elsewhere herein. In selected pre-treatment and post-transgene activation experiments, unmethylated CpG (CpG-B) (Keck Center, Yale University) was also employed at similar doses. At the end of these intervals, assessments of angiogenesis (anti-CD31 immunohistochemistry), vascular permeability (Evan's blue dye extravasation, wet to dry lung weight measurements, BAL protein concentration), BAL and tissue inflammatory cell infiltration and mucus metaplasia (periodic acid-Schiff (PAS) staining, MUC5AC immunoblotting) were undertaken. In all cases experiments were designed to compare Tg− and Tg+ mice on normal water and Tg− and Tg+ mice on dox water.

[2] = system: CC10-rtTA-VEGF165 transgenic mice; experiment: VEGF-induced pulmonary hemorrhage in BAL fluids; details: Tg+ mice, pretreatment, vs vehicle
Protocol: as §1, with “10:1095-103). […]” for “10:1095-103).”
Mice were sacrificed using intraperitoneal ketamine/xylazine injection and the trachea was cannulated and perfused with two 0.9 nil aliquots of cold saline. The cellular contents and BAL fluid were separated by centrifugation, the BAL cell number was quantitated and cell differential was assessed. […]
The lungs were removed en bloc as described elsewhere herein, inflated at 25 cm pressure with PBS containing 0.5% low melting point agarose gel, fixed in Streck solution (Streck Laboratories, La Vista, Nebr.), embedded in paraffin, sectioned and stained. […] Pulmonary hemorrhage was evaluated by quantitating BAL red blood cell number with a Coulter counter (Beckman Coulter).

[3] = system: CC10-rtTA-VEGF165 transgenic mice; experiment: Lung tissue inflammation, histologic analysis; details: Tg+ mice, pretreatment, vs vehicle
Protocol: The lungs were removed en bloc as described elsewhere herein, inflated at 25 cm pressure with PBS containing 0.5% low melting point agarose gel, fixed in Streck solution (Streck Laboratories, La Vista, Nebr.), embedded in paraffin, sectioned and stained. Hematoxylin and eosin and PAS stains were performed in the Research Histology Laboratory of the Department of Pathology at the Yale University School of Medicine. Pulmonary hemorrhage was evaluated by quantitating BAL red blood cell number with a Coulter counter (Beckman Coulter).

polyinosinic-polycytidylic acid [Poly(I:C)]
VEGF-induced vascular responses, delayed administration ([1]; Tg+ mice, given 2 days (48 hours) or 14 days (2 weeks) after transgene activation with dox): significant decrease; also recorded: significant inhibition | VEGF-induced angiogenesis (vascular density, appearance, sprouting) ([1]; Tg+ mice): inhibited | VEGF-induced angiogenesis (vascular density, appearance, sprouting) ([1]; Tg+ mice, listed as poly(I:C)): markedly decreased | Vascularity (%) ([1]; VEGF-induced tissue responses, TLR agonist administration, PBS control 43): 28.7% | lowest dose with significant inhibition of VEGF-induced angiogenesis ([1]; pretreatment): 5 µg | dose with maximal inhibition of VEGF-induced angiogenesis ([1]; pretreatment, highest dose tested): 30 µg | vascular density after as little as 1 dose ([1]; shorter treatment interval, 1 dose before dox): significant decrease | VEGF-induced bleeding / hemorrhage in BAL fluids [2]: significantly decreased | inflammatory cell accumulation in lung tissues [3]: lower levels of inflammation
